For data set [1], the target named is T1, Beta-secretase 1 (Homo sapiens, UniProt P56817). Nature of the data set: Inhibition of BACE1 mediated human Swedish amyloid precursor protein peptide hydrolysis at 500 uM by HTRF assay. On the technique in general: TR-FRET usually uses a lanthanide donor and a delayed reading to cut background.
The target in data set [2] is T1, Beta-secretase 1.
Description: Inhibition of BACE1 mediated human Swedish amyloid precursor protein peptide hydrolysis by HTRF assay
In data set [3] the target is T2, Cathepsin D (Homo sapiens, UniProt P07339). The experiment in a line: Inhibition of human cathepsin D at 50 uM preincubated for 30 mins.
A short description of the next data set: in vivo. The conditions noted are these: rat, plasma, po, 10 mg/kg.
Data set [4] can be described thus: Ratio of drug level in brain to plasma of rat at 10 mg/kg, po. The data set is classed as ADME, organism-based. Further details: dose 10 mg/kg, route oral.
Data set [5] is described as follows: Dissociation constant, pKa of the compound. The data set is classed as physicochemical.
Data set [6] addresses T1, Beta-secretase 1. The experiment in a line: Inhibition of BACE1 by fragment-based NMR screening method.
For data set [7], the target named is T1, Beta-secretase 1. The experiment in a line: Inhibition of BACE1 mediated hydrolysis of human amyloid precursor protein with Swedish and London mutation in HEK293 cells by ELISA. The class given is cell-based.
Data set [8] has as its target T2, Cathepsin D. The experiment in a line: Inhibition of human cathepsin D preincubated for 30 mins.

T1 sequence (P56817 whole entry): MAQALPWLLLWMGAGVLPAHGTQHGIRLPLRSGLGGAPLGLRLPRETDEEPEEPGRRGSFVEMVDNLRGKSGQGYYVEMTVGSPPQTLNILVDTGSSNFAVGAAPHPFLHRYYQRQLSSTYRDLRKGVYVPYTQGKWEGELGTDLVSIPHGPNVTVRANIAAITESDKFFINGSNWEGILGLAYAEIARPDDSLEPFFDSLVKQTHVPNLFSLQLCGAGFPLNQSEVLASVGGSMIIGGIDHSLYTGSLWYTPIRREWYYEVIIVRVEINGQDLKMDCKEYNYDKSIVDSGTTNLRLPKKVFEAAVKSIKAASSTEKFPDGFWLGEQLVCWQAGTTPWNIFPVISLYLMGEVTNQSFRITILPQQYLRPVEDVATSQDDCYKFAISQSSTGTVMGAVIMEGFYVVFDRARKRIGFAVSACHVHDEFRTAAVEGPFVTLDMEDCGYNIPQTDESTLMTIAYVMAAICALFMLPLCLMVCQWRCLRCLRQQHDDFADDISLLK
T2 sequence (P07339 65-162 limits assumed): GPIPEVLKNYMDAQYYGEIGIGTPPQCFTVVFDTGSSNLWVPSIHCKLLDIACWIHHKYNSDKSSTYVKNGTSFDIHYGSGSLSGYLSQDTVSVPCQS
T2 sequence (P07339 169-412 limits assumed): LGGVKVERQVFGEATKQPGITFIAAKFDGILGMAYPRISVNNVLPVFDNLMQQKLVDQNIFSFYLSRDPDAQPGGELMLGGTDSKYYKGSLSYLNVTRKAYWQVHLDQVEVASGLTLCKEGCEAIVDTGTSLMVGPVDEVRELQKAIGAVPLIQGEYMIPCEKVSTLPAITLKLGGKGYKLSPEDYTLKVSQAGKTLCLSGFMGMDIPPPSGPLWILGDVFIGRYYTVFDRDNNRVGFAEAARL

As to `CCCCNC(=O)NCc1ccc(CN2C(=N)NC(C)(Cc3ccccc3)C2=O)cc1` (racemic), the inhibition (as a rule, the share of the control response that was lost under treatment) at Beta-secretase 1 [1] stood at 64%.

As for `CCCCNC(=O)NCc1ccc(CN2C(=N)NC(CCc3ccccc3)(CC(C)C)C2=O)cc1` (racemic), half-maximal inhibition at Beta-secretase 1 [2] (IC50) required 50 µM.

For `CN1C(=O)C(c2ccccc2)(c2ccccc2)N=C1N`, the inhibition on Cathepsin D [3] came out at 38%. Moreover, the AUC (in general, the area under the concentration-time curve, a measure of exposure) in “in vivo” was 5 µM·h. Further, in data set [4], the Kp (as a rule, the ratio of the level in a tissue or fluid to that in plasma or blood) stood at 1.8.

For the compound `CC(C)CC1(C)NC(=N)N(Cc2cccc(Cl)c2)C1=O` (stereo not drawn), the inhibition against Beta-secretase 1 [1] was 55%. In addition, in [5], the pKa (as a rule, the pH at which an ionisable group is half protonated) stood at 7.2. Also, the Kd (in general, the constant that tells how readily two partners part at equilibrium) on Beta-secretase 1 [6] was found to be 123 µM.

Compound `CC1(C)C(=O)NC(=N)N1CCc1cccc(Cl)c1` came in with a pKa in data set [5] of 4.4.

`CC1(C)NC(=N)N(Cc2cccc(Cl)c2)C1=O` displayed an inhibition at Beta-secretase 1 [1] of 19%. In addition, the Kd at Beta-secretase 1 [6] came to 200 µM.

For `CC(C)CC1(C)NC(=N)N(Cc2ccc(CNC(=O)Nc3ccc(C#N)cc3)cc2)C1=O` (racemic), on Beta-secretase 1 [2], the IC50 – broadly, the concentration at which inhibition is half-maximal – was determined as 7 µM.

For `CCCCNC(=O)NCc1ccc(CN2C(=N)NC(CCC3CCCCC3)(CC3CCCCC3)C2=O)cc1` (stereo not drawn), the midpoint of inhibition against Beta-secretase 1 [2], the IC50, lay at 0.35 µM.

At Beta-secretase 1 [2], `CCCCNC(=O)NCc1ccc(CN2C(=N)NC(CCC3CCCCC3)(CC(C)C)C2=O)cc1` (racemic) registered an IC50 of 3 µM.

Regarding `CCCCNC(=O)NCc1ccc(CN2C(=N)NC(CC3CCCCC3)(CC3CCCCC3)C2=O)cc1`, at Beta-secretase 1 [2], the IC50 turned out to be 2.1 µM.

In turn, `CC(C)CC1(C)C(=O)NC(=N)N1Cc1cccc(Cl)c1` (stereo not drawn) yielded an inhibition at Beta-secretase 1 [1] of 6%.

Compound `CCCCNC(=O)NCc1ccc(CN2C(=N)NC(C)(CC3CCCCC3)C2=O)cc1` (racemic) registered an IC50 against Beta-secretase 1 [2] of 5 µM.

As for `CN1C(=N)N[C@](CCC2CCCCC2)(CC2CCCCC2)C1=O`, the IC50 at Beta-secretase 1 [7] is 2.6 µM; against Beta-secretase 1 [2], 0.605 µM. In addition, the AUC in “in vivo” turned out to be 1 µM·h. For the same compound, the Ki (as a rule, the equilibrium dissociation constant of an inhibitor or competing ligand from its target) on Cathepsin D [8] was 0.74 µM. Moreover, in data set [4], the Kp came to 0.9.

Turning to `CCCCNC(=O)NCc1ccc(CN2C(=N)NC(C)(CC(C)C)C2=O)cc1` (stereo not drawn), on Beta-secretase 1 [2], the IC50 was determined as 78 µM.

For the origin of these results see ChEMBL document CHEMBL1154761 (J Med Chem, 2010).
